{"source": "patent US8017558B2", "about": "“Carboxamides for controlling micro-organisms in plant and material protection” (priority 2005, dated 2011)", "key": {"[1]": {"assay": "logP determination by HPLC on reversed-phase column (C 18), EEC Directive 79/831 Annex V.A8", "type": "physicochemical", "settings": "for chromatographic logP: reversed-phase HPLC column (C 18)", "method": "The logP values given in the Tables and Preparation Examples above are determined in accordance with EEC Directive 79/831 Annex V.A8 by HPLC (High Performance Liquid Chromatography) on a reversed-phase column (C 18). Temperature: 43° C. The determination is carried out in the acidic range at pH 2.3 using the mobile phases 0.1% aqueous phosphoric acid and acetonitrile; linear gradient from 10% acetonitrile to 90% acetonitrile. The determination is carried out in the neutral range at pH 7.5 using the mobile phases 0.01-molar aqueous phosphate buffer solution and acetonitrile; linear gradient from 10% acetonitrile to 90% acetonitrile. Calibration is carried out using unbranched alkan-2-ones (having 3 to 16 carbon atoms), with known logP values (determination of the logP values by the retention times using linear interpolation between two successive alkanones)."}, "[2]": {"system": "Botrytis cinerea", "assay": "Botrytis Test (bean)/protective", "type": "in vivo", "settings": "protective spray, application rate 250 ppm, evaluation 2 days after inoculation", "method": "Botrytis Test (Bean)/Protective\nTo produce a suitable preparation of active compound, 1 part by weight of active compound is mixed with the stated amounts of solvents and emulsifier and the concentrate is diluted with water to the desired concentration. To test for protective activity, young plants are sprayed with the active compound preparation at the stated application rate. After the spray coating has dried on, 2 small pieces of agar colonized by Botrytis cinerea are placed onto each leaf. The inoculated plants are placed in a dark chamber at about 20° C. and 100% relative atmospheric humidity. The size of the infected areas on the leaves is evaluated 2 days after the inoculation. 0% means an efficacy which corresponds to that of the control, whereas an efficacy of 100% means that no infection is observed."}, "[3]": {"system": "Uromyces appendiculatus", "assay": "Uromyces Test (bean)/protective", "type": "in vivo", "settings": "protective spray, application rate 100 ppm, evaluation 10 days after inoculation", "method": "Uromyces Test (Bean)/Protective\n(§1) To produce a suitable preparation of active compound, 1 part by weight of active compound is mixed with the stated amounts of solvents and emulsifier and the concentrate is diluted with water to the desired concentration. To test for protective activity, young plants are sprayed with the active compound preparation at the stated application rate. After the spray coating has dried on, the plants are inoculated with an aqueous spore suspension of the bean rust pathogen Uromyces appendiculatus and then remain in an incubation cabinet at about 20° C. and 100% relative atmospheric humidity for 1 day. The plants are then placed in a greenhouse at about 21° C. and a relative atmospheric humidity of about 90%. Evaluation is carried out 10 days after the inoculation. 0% means an efficacy which corresponds to that of the control, whereas an efficacy of 100% means that no infection is observed."}, "[4]": {"system": "Alternaria solani", "assay": "Alternaria Test (tomato)/protective", "type": "in vivo", "settings": "protective spray, application rate 500 ppm, evaluation 7 days after inoculation", "method": "Alternaria Test (Tomato)/Protective\nTo produce a suitable preparation of active compound, 1 part by weight of active compound is mixed with the stated amounts of solvent and emulsifier and the concentrate is diluted with water to the desired concentration. To test for protective activity, young tomato plants are sprayed with the active compound preparation at the stated application rate. 1 day after the treatment, the plants are inoculated with a spore suspension of Alternaria solani and then remain at 100% relative atmospheric humidity and 20° C. for 24 h. The plants then remain at 96% relative atmospheric humidity and a temperature of 20° C. Evaluation is carried out 7 days after the inoculation. 0% means an efficacy which corresponds to that of the control, whereas an efficacy of 100% means that no infection is observed."}, "[5]": {"system": "Sphaerotheca fuliginea", "assay": "Sphaerotheca Test (cucumber)/protective", "type": "in vivo", "settings": "protective spray, application rate 100 ppm, evaluation 7 days after inoculation", "method": "Sphaerotheca Test (Cucumber)/Protective\nTo produce a suitable preparation of active compound, 1 part by weight of active compound is mixed with the stated amounts of solvents and emulsifier, and the concentrate is diluted with water to the desired concentration.\nTo test for protective activity, young plants are sprayed with the active compound preparation at the stated application rate. After the spray coating has dried on, the plants are inoculated with an aqueous spore suspension of Sphaerotheca fuliginea. The plants are then placed in a greenhouse at about 23° C. and a relative atmospheric humidity of about 70%.\nEvaluation is carried out 7 days after the inoculation. 0% means an efficacy which corresponds to that of the control, whereas an efficacy of 100% means that no infection is observed."}, "[6]": {"system": "Venturia inaequalis", "assay": "Venturia Test (apple)/protective", "type": "in vivo", "settings": "protective spray, application rate 100 ppm, evaluation 10 days after inoculation", "method": "Venturia Test (Apple)/Protective\nas §1, with “rates.” for “rate.”, “conidia” for “spore”, “apple scab” for “bean rust”, “Venturia inaequalis” for “Uromyces appendiculatus”, “cabin” for “cabinet”"}, "[7]": {"system": "Puccinia recondita", "assay": "Puccinia Test (wheat)/protective", "type": "in vivo", "settings": "protective spray, application rate 1000 ppm, evaluation 10 days after inoculation", "method": "Puccinia Test (Wheat)/Protective\n(§2) To produce a suitable preparation of active compound, 1 part by weight of active compound is mixed with the stated amounts of solvent and emulsifier and the concentrate is diluted with water to the desired concentration. To test for protective activity, young plants are sprayed with the active compound preparation at the stated application rate. After the spray coating has dried on, the plants are sprayed with a conidia suspension of Puccinia recondita. The plants remain in an incubation cabin at 20° C. and 100% relative atmospheric humidity for 48 hours. The plants are then placed in a greenhouse at a temperature of about 20° C. and a relative atmospheric humidity of about 80% to promote the development of rust pustules. Evaluation is carried out 10 days after the inoculation. 0% means an efficacy which corresponds to that of the control, whereas an efficacy of 100% means that no infection is observed."}, "[8]": {"system": "Pyrenophora teres", "assay": "Pyrenophora teres Test (barley)/protective", "type": "in vivo", "settings": "protective spray, application rate 1000 ppm, evaluation 8 days after inoculation", "method": "Pyrenophora teres Test (Barley)/Protective\nas §2, with “of Pyrenophora teres.” for “of Puccinia recondita.”, “about 80%.” for “about 80% to promote the development of rust pustules.”, “out 8” for “out 10”"}, "[9]": {"settings": "pH 2.3, 0.1% aqueous phosphoric acid/acetonitrile gradient, 43° C."}}}
{"smiles": "COCCSC(=Nc1ccccc1C1CC2CCC1C2)c1cn(C)nc1C(F)F", "note": "(stereo not drawn) [Compound 3]", "values": [{"measurement": "logP (pH 2.3)", "setting": "[1]; [9]", "result": 4.62}]}
{"smiles": "Cn1cc(C(=Nc2ccccc2C2CC3CCC2C3)SCC#N)c(C(F)F)n1", "note": "(stereo not drawn) [Compound 6]", "values": [{"measurement": "logP (pH 2.3)", "setting": "[1]; [9]", "result": 4.15}]}
{"smiles": "Cn1cc(C(=Nc2ccccc2C2CC3CCC2C3)SCSC#N)c(C(F)F)n1", "note": "(stereo not drawn) [Compound 7]", "values": [{"measurement": "logP (pH 2.3)", "setting": "[1]; [9]", "result": 4.55}]}
{"smiles": "C#CCSC(=Nc1ccccc1C1CC2CCC1C2)c1cn(C)nc1C(F)F", "note": "(stereo not drawn) [Compound 8]", "values": [{"measurement": "logP (pH 2.3)", "setting": "[1]; [9]", "result": 4.65}]}
{"smiles": "CS/C(=N\\c1ccccc1C1CC2CCC1C2)c1cn(C)nc1C(F)F", "note": "(stereo not drawn) [Compound 9, methyl N-(2-bicyclo[2.2.1]hept-2-ylphenyl)-3-(difluoromethyl)-1-methyl-1H-pyrazole-4-carbimidothioate]", "values": [{"measurement": "chromatographic logP", "setting": "[1]; [9]", "result": 4.75}]}
{"smiles": "Cn1cc(C(=Nc2ccccc2C2CC3CCC2C3)SCCO)c(C(F)F)n1", "note": "(stereo not drawn) [Compound 10]", "values": [{"measurement": "Efficacy in %", "setting": "[2]", "result": 100, "unit": "%"}, {"measurement": "Efficacy in %", "setting": "[3]", "result": 100, "unit": "%"}, {"measurement": "logP (pH 2.3)", "setting": "[1]; pH 2.3", "result": 3.23}, {"measurement": "Efficacy in %", "setting": "[4]", "result": 100, "unit": "%"}, {"measurement": "Efficacy in %", "setting": "[5]", "result": 100, "unit": "%"}, {"measurement": "Efficacy in %", "setting": "[6]", "result": 100, "unit": "%"}]}
{"smiles": "CCOC(=O)CSC(=Nc1ccccc1C1CC2CCC1C2)c1cn(C)nc1C(F)F", "note": "(stereo not drawn) [Compound 11]", "values": [{"measurement": "Efficacy in %", "setting": "[7]", "result": 100, "unit": "%"}, {"measurement": "Efficacy in %", "setting": "[2]", "result": 100, "unit": "%"}, {"measurement": "Efficacy in %", "setting": "[3]", "result": 100, "unit": "%"}, {"measurement": "logP (pH 2.3)", "setting": "[1]; pH 2.3", "result": 4.66}, {"measurement": "Efficacy in %", "setting": "[8]", "result": 100, "unit": "%"}, {"measurement": "Efficacy in %", "setting": "[4]", "result": 95, "unit": "%"}, {"measurement": "Efficacy in %", "setting": "[5]", "result": 100, "unit": "%"}, {"measurement": "Efficacy in %", "setting": "[6]", "result": 100, "unit": "%"}]}
{"smiles": "Cn1cc(C(=Nc2ccccc2C2CC3CCC2C3)SCc2ccc(Cl)nc2)c(C(F)F)n1", "note": "(stereo not drawn) [Compound 12]", "values": [{"measurement": "logP (pH 2.3)", "setting": "[1]; [9]", "result": 4.95}]}
{"smiles": "CCCCCCCCCCCCSC(=Nc1ccccc1C1CC2CCC1C2)c1cn(C)nc1C(F)F", "note": "(stereo not drawn) [Compound 13]", "values": [{"measurement": "logP (pH 2.3)", "setting": "[1]; [9]", "result": 7.36}]}
{"smiles": "Cn1cc(C(=Nc2ccccc2C2CC3CCC2C3)SC(=O)C(C)(C)C)c(C(F)F)n1", "note": "(stereo not drawn) [Compound 18]", "values": [{"measurement": "logP (pH 2.3)", "setting": "[1]; [9]", "result": 5.81}]}
{"smiles": "CCC1(C(=O)SC(=Nc2ccccc2C2CC3CCC2C3)c2cn(C)nc2C(F)F)C(C)C1(Cl)Cl", "note": "(stereo not drawn) [Compound 19]", "values": [{"measurement": "Efficacy in %", "setting": "[7]", "result": 93, "unit": "%"}, {"measurement": "Efficacy in %", "setting": "[3]", "result": 96, "unit": "%"}, {"measurement": "logP (pH 2.3)", "setting": "[1]; pH 2.3", "result": 6.52}, {"measurement": "Efficacy in %", "setting": "[8]", "result": 92, "unit": "%"}, {"measurement": "Efficacy in %", "setting": "[4]", "result": 90, "unit": "%"}, {"measurement": "Efficacy in %", "setting": "[6]", "result": 99, "unit": "%"}]}
{"smiles": "Cn1cc(C(=Nc2ccccc2C2CC3CCC2C3)SC(=O)C2(C)CCCCC2)c(C(F)F)n1", "note": "(stereo not drawn) [Compound 20]", "values": [{"measurement": "Efficacy in %", "setting": "[7]", "result": 100, "unit": "%"}, {"measurement": "Efficacy in %", "setting": "[3]", "result": 99, "unit": "%"}, {"measurement": "logP (pH 2.3)", "setting": "[1]; pH 2.3", "result": 6.66}, {"measurement": "Efficacy in %", "setting": "[8]", "result": 100, "unit": "%"}, {"measurement": "Efficacy in %", "setting": "[4]", "result": 80, "unit": "%"}, {"measurement": "Efficacy in %", "setting": "[5]", "result": 100, "unit": "%"}, {"measurement": "Efficacy in %", "setting": "[6]", "result": 100, "unit": "%"}]}
{"smiles": "Cc1nn(C)c(F)c1C(=S)Nc1ccccc1C(C)CC(C)(C)C", "note": "(stereo not drawn) [II-1]", "values": [{"measurement": "logP (at pH 7.5)", "setting": "[1]; pH 7.5, 0.01-molar aqueous phosphate buffer/acetonitrile gradient, 43° C.", "result": "3.70 (at pH 7.5)"}]}
{"smiles": "Cn1cc(C(=S)Nc2ccccc2C2CC3CCC2C3)c(C(F)F)n1", "note": "(stereo not drawn) [II-7, N-(2-bicyclo[2.2.1]hept-2-ylphenyl)-3-(difluoromethyl)-1-methyl-1H-pyrazole-4-thiocarboxamide]", "values": [{"measurement": "chromatographic logP", "setting": "[1]; [9]", "result": 3.66}]}
{"smiles": "Cn1cc(C(=NNc2ccccc2)Nc2ccccc2C2CC3CCC2C3)c(C(F)F)n1", "note": "(stereo not drawn) [II-8, N-(2-bicyclo[2.2.1]hept-2-ylphenyl)-3-(difluoromethyl)-1-methyl-N′-phenyl-1H-pyrazole-4-carbohydrazonamide]", "values": [{"measurement": "chromatographic logP", "setting": "[1]; [9]", "result": 3.66}]}
{"smiles": "Cn1cc(C(=NO)Nc2ccccc2C2CC3CCC2C3)c(C(F)F)n1", "note": "(stereo not drawn) [II-9]", "values": [{"measurement": "logP (pH 2.3)", "setting": "[1]; [9]", "result": 2.88}]}
